Results from ChEMBL document CHEMBL1141967, “N-Sulfonyl hydroxamate derivatives as inhibitors of class II fructose-1,6-diphosphate aldolase” (Bioorg Med Chem Lett, 2005).
Values belong to the molecule of their own block, whether it stands above or below them.

Key:
[1] = target: T1, Fructose-bisphosphate aldolase A (Oryctolagus cuniculus, UniProt P00883); assay: Inhibitory activity against class I FBP aldolase from rabbit
T1 sequence (P00883 whole entry): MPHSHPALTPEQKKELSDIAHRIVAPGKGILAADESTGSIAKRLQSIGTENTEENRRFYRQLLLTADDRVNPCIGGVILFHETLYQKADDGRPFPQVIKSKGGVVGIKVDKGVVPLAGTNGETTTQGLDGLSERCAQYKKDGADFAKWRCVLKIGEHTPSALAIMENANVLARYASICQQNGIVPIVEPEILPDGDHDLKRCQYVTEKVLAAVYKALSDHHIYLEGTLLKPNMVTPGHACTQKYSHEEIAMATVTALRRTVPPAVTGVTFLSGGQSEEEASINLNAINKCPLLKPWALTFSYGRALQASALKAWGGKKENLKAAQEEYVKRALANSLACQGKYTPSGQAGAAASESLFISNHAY

[2] = target: T2, Fructose-bisphosphate aldolase class 2 (Escherichia coli K-12, UniProt P0AB71); assay: Inhibitory activity against class II FBP aldolase from Escherichia coli
T2 sequence (P0AB71 whole entry): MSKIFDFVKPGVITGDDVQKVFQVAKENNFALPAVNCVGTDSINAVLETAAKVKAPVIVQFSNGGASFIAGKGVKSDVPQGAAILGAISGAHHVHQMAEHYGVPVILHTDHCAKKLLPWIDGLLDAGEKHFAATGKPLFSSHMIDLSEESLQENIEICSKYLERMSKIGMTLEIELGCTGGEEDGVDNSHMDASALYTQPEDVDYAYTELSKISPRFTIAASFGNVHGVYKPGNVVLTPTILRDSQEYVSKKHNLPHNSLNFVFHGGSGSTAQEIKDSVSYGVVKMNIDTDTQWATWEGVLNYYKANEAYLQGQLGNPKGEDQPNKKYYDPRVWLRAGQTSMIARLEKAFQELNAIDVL

Structure (SMILES): O=C(CCP(=O)(O)O)NO
- Ki [1]: > 1000 µM
- Ki [2]: > 1000 µM

Structure (SMILES): O=C(COP(=O)(O)O)NO [PHOSPHOGLYCOLOHYDROXAMATE]
- Ki [1]: 1 µM
- Ki [2]: 0.01 µM

Structure (SMILES): CS(=O)(=O)NC(=O)COP(=O)(O)O
- Ki [1]: > 10000 µM
- Ki [2]: 350 µM

Structure (SMILES): CS(=O)(=O)NC(=O)CCP(=O)(O)O
- Ki [1]: > 10000 µM
- Ki [2]: > 10000 µM

- Ki [1]: > 10000 µM
- Ki [2]: > 10000 µM
Structure (SMILES): O=C(CCP(=O)(O)O)NS(=O)(=O)c1ccccc1

Structure (SMILES): O=C(COP(=O)(O)O)NS(=O)(=O)c1ccccc1
- Ki [1]: > 10000 µM
- Ki [2]: 100 µM
